Test results: patent publication US20250213560A1, “NITROGEN-CONTAINING HETEROCYCLIC COMPOUNDS HAVING PHENYL GROUP AND USES THEREOF” (BNH RESEARCH CO., LTD., priority 2022, published 2025)

What was measured:
Format in all cases: cell-based, human
SH-SY5Y cells = assay: Cytotoxicity test (CCK-8 cell viability) in SH-SY5Y cells; conditions: SH-SY5Y, 0, 0.1, 1, 10, 100 μM, 24 hours
Procedure: Human undifferentiated neuroblastoma cell line SH-SY5Y and human embryonic kidney cell line (HEK)-293T were purchased from Korean Cell Line Bank (Korea) and Takara (Japan), respectively. Cells were grown in HyClone Minimal Essential Medium (MEM) and Dulbecco's Modified Eagle Medium (DMEM), respectively, supplemented with 10% (v/v) fetal bovine serum (FBS), penicillin (100 U/mL), and streptomycin ([…]). Cells were maintained in a humidified atmosphere of 95% air and 5% CO2 at 37° C. Cells were passaged 10 times at maximum. Cells were dissociated using 0.05% trypsin-EDTA solution and the cells were seeded in new culture dishes for maintenance. […]
The time of co-incubation was 24 hours and six replicates were made for each measurement. Finally, 10 μL of CCK-8 reagent (Dojindo Laboratories, Rockville, MD) was added to each well, and after incubation at 37° C. for 3 minutes, the OD at 450 nm was measured using a multifunction microplate reader (Tecan Infinite M200 Pro). These measurements were compared to that of a control and expressed as a percentage of the control to calculate cell viability. The IC50 value was calculated using SPSS software. To do this, the absorbance of the blank wells with only growth medium is subtracted from the values or the wells with cells. […]
The cytotoxicity of the compound was evaluated by treating cells with BnH12003 and measuring cell viability.

293T cells = assay: Cytotoxicity test (CCK-8 cell viability) in 293T cells
Method in brief: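 293T cells plated 24 h, then exposed to serial compound concentrations for 24 h (six replicates). Viability by CCK-8 ([…], OD 450 nm), blank-subtracted and expressed as percent of vehicle control; IC50 calculated from these values.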

BDNF = BDNF expression in SH-SY5Y cells; conditions: 1 μM, application for 6 and 24 hours
Procedure: Human undifferentiated neuroblastoma cell line SH-SY5Y and human embryonic kidney cell line (HEK)-293T were purchased from Korean Cell Line Bank (Korea) and Takara (Japan), respectively. Cells were grown in HyClone Minimal Essential Medium (MEM) and Dulbecco's Modified Eagle Medium (DMEM), respectively, supplemented with 10% (v/v) fetal bovine serum (FBS), penicillin (100 U/mL), and streptomycin ([…]). Cells were maintained in a humidified atmosphere of 95% air and 5% CO2 at 37° C. Cells were passaged 10 times at maximum. Cells were dissociated using 0.05% trypsin-EDTA solution and the cells were seeded in new culture dishes for maintenance.
RT-PCR was used to measure the amount of BDNF and GluN2B in response to compounds of the present disclosure. 293T cells were dissociated using 0.05% Trypsin-EDTA solution and seeded in 24 well or 6 well dishes for RNA work. After incubation at 37° C. in a humidified atmosphere with 5% CO2 for 24 hours, the culture medium was replaced by a medium containing a series of concentrations of tested compounds diluted with the DMEM without FBS. Time course experiments were performed. The same volume of DMSO was used for negative control.
Similarly, BnH12003 (1 μM) augmented BDNF and GluN2B expression by application for 6 and 24 hours in SH-SY5Y cells (FIGS. 11A and 11B).

With `C[C@H]1CC[C@@H](C(=O)O)CN1C(=O)Cc1ccc(-c2cncnc2)cc1` [BnH12003, (3R,6S)-6-methyl-1-(2-(4-(pyrimidin-5-yl)phenyl)acetyl) piperidine-3-carboxylic acid] the cell viability (SH-SY5Y cells) was “no significant change in cell viability”, the “Cell viability test results (CCK) 10 uM” value (293T cells; 293T cell line, 10 uM) was 99%< and the “Cell viability test results (CCK) 100 uM” value (293T cells; 293T cell line, 100 uM) was 90%<. The cell viability (293T cells; 293T, 0, 0.1, 1, 10, 100 μM, 24 hours, CCK-8) was “no significant change in cell viability” and the BDNF expression (BDNF) was “augmented”.
